{"source": "patent US20240108011A1", "about": "“HERBICIDAL COMBINATIONS AND COMPOSITIONS AND METHODS FOR TREATING WEEDS USING THE SAME” (UPL Corporation Limited, priority 2021, published 2024)", "type_in_all_cases": "in vivo", "key": {"Borreria verticilata": {"tested_on": "Borreria verticilata", "experiment": "Greenhouse trial, weed control efficacy on Borreria verticilata", "settings": "7 DAA", "description": "In this example, synergy from the combination of L-glufosinate ammonium (150 gai/ha) and 2,4-D choline (137 gai/ha) on Borrelia verticilata was determined using the calculated percentage efficacy after 7 days of application (DAA). The results are recorded in Table 1 below:\nIn this example, synergy of the combination of L-glufosinate ammonium (150 gai/ha) and 2,4-D choline (228 gai/ha) on Borrelia verticilata was determined using the calculated percentage efficacy after 7 days of application (DAA)."}, "Eleusine indica": {"tested_on": "Eleusine indica", "experiment": "Greenhouse trial, weed control efficacy on Eleusine indica", "settings": "Table 3", "description": "In this example, synergy of the combination of L-glufosinate ammonium (150 gai/ha) and 2,4-D choline (228 gai/ha) on Eleusine indica was determined using the calculated percentage efficacy after 7, 14, 21 and 28 days of application (DAA)."}, "Euphorbia heterophylla": {"tested_on": "Euphorbia heterophylla", "experiment": "Greenhouse trial, weed control efficacy on Euphorbia heterophylla", "description": "In this example, synergy of the combination of L-glufosinate ammonium (150 gai/ha) and 2,4-D choline (137 gai/ha) Euphorbia heterophylla was determined using the calculated percentage efficacy after 7, 14, 21 days of application (DAA). The results are recorded in the Table 4 below:\nIn this example, synergy of using the combination of L-glufosinate ammonium (150 gai/ha) and 2,4-D choline (228 gai/ha) on Euphorbia heterophylla was determined using the calculated percentage efficacy after 14, 21 days of application (DAA)."}}}
{"smiles": "CP(=O)(O)CC[C@H](N)C(=O)O.N", "note": "[L-glufosinate ammonium, ammonium (2S)-2-amino-4-(methylphosphinato)butyric acid]", "values": [{"measurement": "Observed efficacy (%) of L-glufosinate ammonium (150 gai/ha)", "setting": "Borreria verticilata; Table 1", "value": 65, "unit": "%"}, {"measurement": "Observed efficacy (%) of L-glufosinate ammonium (150 gai/ha)", "setting": "Borreria verticilata; Table 2", "value": 65, "unit": "%"}, {"measurement": "Observed efficacy (%) of L-glufosinate ammonium (150 gai/ha)", "setting": "Eleusine indica; 7 DAA", "value": 70, "unit": "%"}, {"measurement": "Observed efficacy (%) of L-glufosinate ammonium (150 gai/ha)", "setting": "Eleusine indica; 14 DAA", "value": 65, "unit": "%"}, {"measurement": "Observed efficacy (%) of L-glufosinate ammonium (150 gai/ha)", "setting": "Eleusine indica; 21 DAA", "value": 60, "unit": "%"}, {"measurement": "Observed efficacy (%) of L-glufosinate ammonium (150 gai/ha)", "setting": "Eleusine indica; 28 DAA", "value": 50, "unit": "%"}, {"measurement": "Observed efficacy (%) of L-glufosinate ammonium (150 gai/ha)", "setting": "Euphorbia heterophylla; Table 4, 7 DAA", "value": 95, "unit": "%"}, {"measurement": "Observed efficacy (%) of L-glufosinate ammonium (150 gai/ha)", "setting": "Euphorbia heterophylla; Table 4, 14 DAA", "value": 98, "unit": "%"}, {"measurement": "Observed efficacy (%) of L-glufosinate ammonium (150 gai/ha)", "setting": "Euphorbia heterophylla; Table 4, 21 DAA", "value": 98, "unit": "%"}, {"measurement": "Observed efficacy (%) of L-glufosinate ammonium (150 gai/ha)", "setting": "Euphorbia heterophylla; Table 5, 14 DAA", "value": 98, "unit": "%"}, {"measurement": "Observed efficacy (%) of L-glufosinate ammonium (150 gai/ha)", "setting": "Euphorbia heterophylla; Table 5, 21 DAA", "value": 98, "unit": "%"}]}
{"smiles": "C[N+](C)(C)CCO.O=C([O-])COc1ccc(Cl)cc1Cl", "note": "[2,4-D choline]", "values": [{"measurement": "Observed efficacy (%) of 2,4-D choline (137 gai/ha)", "setting": "Borreria verticilata; Table 1, 137 gai/ha", "value": 30, "unit": "%"}, {"measurement": "Observed efficacy (%) of 2,4-D choline (228 gai/ha)", "setting": "Borreria verticilata; Table 2, 228 gai/ha", "value": 30, "unit": "%"}, {"measurement": "Observed efficacy (%) of 2,4-D choline (228 gai/ha)", "setting": "Eleusine indica; 7 DAA", "value": 10, "unit": "%"}, {"measurement": "Observed efficacy (%) of 2,4-D choline (228 gai/ha)", "setting": "Eleusine indica; 14 DAA", "value": 10, "unit": "%"}, {"measurement": "Observed efficacy (%) of 2,4-D choline (228 gai/ha)", "setting": "Eleusine indica; 21 DAA", "value": 10, "unit": "%"}, {"measurement": "Observed efficacy (%) of 2,4-D choline (228 gai/ha)", "setting": "Eleusine indica; 28 DAA", "value": 5, "unit": "%"}, {"measurement": "Observed efficacy (%) of 2,4-D choline (137 gai/ha)", "setting": "Euphorbia heterophylla; Table 4, 7 DAA", "value": 35, "unit": "%"}, {"measurement": "Observed efficacy (%) of 2,4-D choline (137 gai/ha)", "setting": "Euphorbia heterophylla; Table 4, 14 DAA", "value": 30, "unit": "%"}, {"measurement": "Observed efficacy (%) of 2,4-D choline (137 gai/ha)", "setting": "Euphorbia heterophylla; Table 4, 21 DAA", "value": 25, "unit": "%"}, {"measurement": "Observed efficacy (%) of 2,4-D choline (228 gai/ha)", "setting": "Euphorbia heterophylla; Table 5, 14 DAA", "value": 30, "unit": "%"}, {"measurement": "Observed efficacy (%) of 2,4-D choline (228 gai/ha)", "setting": "Euphorbia heterophylla; Table 5, 21 DAA", "value": 30, "unit": "%"}]}
